{"source": "paper PMC12414871", "about": "“Unraveling the functional dynamics of Caenorhabditis elegans stress‐responsive omega class GST‐44” (The Febs Journal, 2025)", "target": "T1, GST‐44 (Caenorhabditis elegans, UniProt O45352)", "T1 construct": "recombinant, E. coli BL21(DE3), vector pJC40 with removable N-terminal His tag, Ni-NTA purified", "T1 sequence (O45352 entry or part of it)": "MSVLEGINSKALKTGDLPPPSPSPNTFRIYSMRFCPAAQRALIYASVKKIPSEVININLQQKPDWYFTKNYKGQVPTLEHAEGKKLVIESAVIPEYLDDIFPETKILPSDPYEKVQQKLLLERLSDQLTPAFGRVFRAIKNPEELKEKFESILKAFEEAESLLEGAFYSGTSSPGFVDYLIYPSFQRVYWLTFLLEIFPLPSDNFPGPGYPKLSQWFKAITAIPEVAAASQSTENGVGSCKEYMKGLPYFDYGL", "assay": "thioltransferase assay, substrate saturation curve and Lineweaver-Burk diagram", "format": "biochemical", "conditions": "co-substrate GSH (thioltransferase assay; reduction of spontaneously formed mixed disulfide)"}
{"compound": "OCCSSCCO", "note": "[2‐hydroxyethyl disulfide]", "values": [{"measurement": "Km", "result": 160, "unit": "µM"}]}
